According to patent US5776935A, “Pyrido-phtalazin diones and their use against neurological disorders associated with excitotoxicity and malfunctioning of glutamatergic neurotransmission” (Merz & Co. GmbH & Co., priority 1996, dated 1998):
Counter-ions that a name gives are not always drawn. Like-named read-outs stand apart in the source and are kept apart here. One block for each molecule: values may come before it.

Assays:
[1] = molecular target: T1, NMDA receptor (Mus musculus, UniProt P35438); experiment: Maximal electroshock (MES)-induced tonic convulsions; format: in vivo; conditions: i.p.; for ED50: mouse, ip, 0.25 h, read-out: MES ID50; for ED50 / MES ID50: 15 min before induction
T1 construct: from tissue; host or cells: living mice (albino Swiss males for NMDA and PTZ tests, NMR females for MES)
Procedure: (§1) To assess NMDA receptor antagonistic properties of the tested agents by assessing anticonvulsive effects. Additionally the role of organic acid transporters in the elimination from the brain of tested agents was assessed by using an inhibitor, Probenicid, on the duration of anticonvulsive activity.
(§2) Male albino Swiss mice (19-21 g) housed 10-15 per cage were used for the NMDA lethality test (Leander et al., 1988). For pentylenetetrazol (PTZ)-induced convulsions male albino Swiss mice (25-34 g.) housed 40 per cage (58×38×20 cm) were used while in the maximal electroshock (MES) and motor impairment tests NMR female mice (18-28 g) housed 5 per cage were employed. All animals were kept with water and food ad libittum under a 12-h light-dark cycle (light on at 6 a.m.), and at a controlled temperature (20°±0.5° C.). All experiments were performed between 10 a.m. and 5 p.m. Tested agents were injected 15 min. i.p before the induction of convulsions if not stated otherwise (see below). Mrz 2/502 was dissolved in saline added with NaOH. Most other agents were dissolved in the following solution: 0.606 g Tris; 5.0 g. glucose; 0.5 g. Tween 80; and 95 ml water. The choline and tetramethylammonium salts were dissolved in distilled water.
(§3) MES (100 Hz, 0.5 sec shock duration, 50 mA shock intensity, 0.9 ms impulse duration, Ugo Basile) was applied through corneal electrodes. The presence of tonic convulsions was scored (tonic extension of hind paws with minimum angle to the body of 90°). In an additional experiment mice were injected with Probenicid (200 mg/kg) 30 min before administration of the tested agents to assess the role of organic acid transport in elimination (duration of action). The aim was to obtain ED50 s for all parameters scored using the Litchfield Wilcoxon (1949) test for quantal dose responses.

[2] = molecular target: T2, NMDA receptor (Rattus norvegicus, UniProt P35439); experiment: Patch clamp, inward currents to NMDA in cultured superior colliculus neurones; format: cell-based; conditions: NMDA 200 μM, glycine 1 μM
T2 construct: endogenous in cells
Procedure: Cells were mechanically dissociated in 0.05% DNAase / 0.3% ovomucoid (Sigma) following a 15 minute pre-incubation with 0.66% trypsin / 0.1% DNAase (Sigma). The dissociated cells were then centrifuged at 18G for 10 minutes, resuspended in minimum essential medium (Gibco) and plated at a density of 200,000 cells cm onto poly-L-lysine (Sigma)-precoated plastic petri dishes (Falcon). The cells were nourished with NaHCO3 /HEPES-buffered minimum essential medium supplemented with 5% foetal calf serum and 5% horse serum (Gibco) and incubated at 37° C. with 5%CO2 at 95% humidity. The medium was exchanged completely following inhibition of further glial mitosis with cytosine-β-D-arabinofuranoside (20 μM Sigma) after about 7 days in vitro. Thereafter the medium was exchanged partially twice weekly. […] Moreover, the relatively small neurones (soma 15-20 μm .phi.) are ideally suited to minimise problems of buffered diffusion for concentration clamp experiments.
Patch clamp recordings were made from these neurones with polished glass electrodes (4-6 m.OMEGA.) in the whole cell mode at room temperature (20°-22° C.) with the aid of an EPC-7 amplifier (List). Test substances were applied by switching channels of a custom made fast superfusion system with a common outflow (10-20 ms exchange times). The contents of the intracellular solution were as follows (mM): CsCl (120), TEACl (20), EGTA (10), MgCl2 (1), CaCl2 (0.2), glucose (10), ATP (2), cAMP (0.25); pH was adjusted to 7.3 with CsOH or HCl. The extracellular solutions had the following basic composition (mM): NaCl (140), KCl (3), CaCl2 (0.2), glucose (10), HEPES (10), sucrose (4.5), tetrodotoxin (TTX 3*10-4). For most experiments glycine (1 μM) was present in all solutions. Experiments to test the glycine-dependence of the tricyclic "pyrido-phtalazin diones" were performed in the continuous presence of increasing concentrations of glycine (1-10 μM).
This effect was mediated at the glycineB site as evidenced by the parallel shift in the concentration-response curves in the presence of increasing glycine concentrations. Thus the Kbs of Mrz 2/502 as assessed according to the Cheng-Prusoff relationship were similar in glycine 1, 3 and 10 μM (80, 124 and 118 nM respectively). […] Choline derivatives had similar potencies to the free acids in vitro (Table14b).

[3] = molecular target: T1, NMDA receptor; experiment: NMDA-induced convulsions / lethality test; format: in vivo; conditions: ip, 0.25 h, i.p., 15 min before induction, read-out: NMDA ID50
Procedure: as §1, §2
In the NMDA-induced convulsions test in mice, a dose-response relationship for NMDA was first performed to determine the ED97 dose which was then used for testing of antagonistic properties. After injection of the ED97 dose of NMDA the animals were placed in a small cage (20×28×14 cm) and observed for 20 min. Death preceded by clonic convulsions and by tonic seizures was the pharmacological end-point.

[4] = molecular target: T1, NMDA receptor; experiment: Pentylenetetrazol (PTZ)-induced convulsions; format: in vivo; conditions: ip, 0.25 h, i.p., PTZ 90 mg/kg i.p., read-out: PTZ ID50
Procedure: as §1, §2
Pentylenetetrazol was injected at a dose of 90 mg/kg (i.p). The presence of general tonic convulsions was then scored for 30 min as this parameter is more sensitive to NMDA receptor antagonists than clonic convulsions. The pharmacological end-point was taken as the presence of tonus in the hind limbs with stretching.

[5] = molecular target: T2, NMDA receptor; experiment: Microelectrophoretic application of NMDA to spinal neurones in vivo; conditions: rat, iv, responses of single rat spinal neurones; read-out: Microelectrophoretic NMDA ID50
Procedure: (§4) The ability of these glycineB antagonists to act as NMDA receptor antagonists in vivo was assessed using i.v. administration against responses of single neurones in the rat spinal cord to microelectrophoretic application of AMPA and NMDA.

[6] = system: organic acid transport; experiment: Duration of anticonvulsive action with and without probenecid; format: in vivo, mouse; conditions: listed as 2/570
Procedure: as §1, §2, §3
Moreover it seems that choline salts have a longer duration of action. Probenecid injection prolonged considerably the duration of anticonvulsive action of all agents tested. For example the half lives of 2/514 and 2/570 were around 40 and 80 minutes respectively in the absence of probenicid. In the presence of probenicid the half lives were prolonged to around 180 and 210 minutes respectively. Thus, it seems that organic acids transport in the choroid plexus out of the brain plays an important role in the short duration of action of the compounds tested..

[7] = system: AMPA; experiment: Microelectrophoretic application of AMPA to spinal neurones in vivo; conditions: i.v., responses of single rat spinal neurones
Procedure: as §4

[8] = molecular target: T3, glycineB site of the NMDA receptor (rat cortical membranes) (Rattus norvegicus, UniProt P35439); experiment: [3H]5,7-DCKA binding assay; conditions: 10 nM [3H]5,7-DCKA
T3 construct: The cortex was dissected and homogenised in 20 volumes of ice-cold 0.32M sucrose; from tissue; host or cells: brain cortex membranes of male Sprague-Dawley rats
Procedure: Tissue preparation was performed according to Foster and Wong (1987). Male Sprague-Dawley rats (200-250g) were decapitated and their brains were removed rapidly. The cortex was dissected and homogenised in 20 volumes of ice-cold 0.32M sucrose using a glass-Teflon homogenizer. The homogenate was centrifuged at 1000×g for 10 min. The pellet was discarded and the supernatant centrifuged at 20,000×g for 20 min. The resulting pellet was resuspended in 20 volumes of distilled water and centrifuged for 20 min at 8000×g. Then the supernatant and the buffy coat were centrifuged three times (48,000× g for 20 min) in the presence of 5 mM Tris-HCl, pH 7.4. All centrifugation steps were carried out at 4° C. After resuspension in 5 volumes of 5 mM Tris-HCl, pH 7.4 the membrane suspension was frozen rapidly at -80° C. until the day of assay. On the day of assay the membranes were thawed and washed four times by resuspension in 5 mM Tris-HCl, pH 7.4 and centrifugation at 48,000× g for 20 min. The final pellet was suspended in assay buffer.
The amount of protein in the final membrane preparation was determined according to the method of Lowry (1951) with some modifications (Hartfree, 1972). 50 μl of Protein samples (in triplicates) were diluted to 1 ml with distilled water and treated with 0.9 ml of a solution containing 2 g potassium sodium tartrate and 10 g Na2 CO3 in 500 ml 1N NaOH and 500ml water. Blank and standard (with bovine serum albumin) were set up in the same way. The tubes were placed in a water bath at 50° C. for 10 min. and cooled at room temperature. 100 μl of a solution containing 2 g potassium sodium tartrate and 1 g CuSO4 x 5 H2 O in 90 ml water and 10 ml 1N NaOH were added. The samples were left at room temperature for at least 10 min., then 3 ml of Folin-Ciocalteu reagent (1 ml of reagent diluted with 15 ml water) was added rapidly during mixing. The tubes were again heated at 50° C. for 10 min. and cooled to room temperature. Absorbencies were then read in 1 cm cuvets at 650 nm. The final protein concentration used for our studies was between 100 and 250 μg/ml.
Incubation in both binding assays was terminated using a Millipore filter system. The samples, all in triplicate, were rinsed three times with 2.5 ml ice cold assay buffer over glass fibre filters obtained from Schleicher & Schuell under a constant vacuum. Following separation and rinse the filters were placed into scintillation liquid (5 ml; Ultima Gold) and radioactivity retained on the filters was determined by using conventional liquid scintillation counter (Hewlett Packard, Liquid Scintillation Analyser). `Total binding` was the absolute amount of radioligand bound in the absence of any additives whereas `non-specific` binding was determined in the presence of a high concentration of competitor.
[^3 H]5,7-DCKA binding assay
Experiments were performed according to the methods modified from previous groups (Canton et al., 1991; Yoneda et al., 1993). Membranes were suspended and incubated in 10 mM Tris-HCl, pH 7.4. Incubation time was 45 min at 4° C. Non-specific binding of [^3 H]5,7-DCKA was defined by the addition of unlabeled glycine at 0.1 mM. The stop-solution contained 10 mM Tris-HCl and 10 mM magnesium sulphate, pH 7.4. Filtration was performed as rapidly as possible. Displacement experiments were performed with a fixed [^3 H]5,7-DCKA concentration of 10 nM. Test compounds were diluted in water or DMSO and added in at least 5 different concentrations.

[9] = In vivo systemic and / or CNS availability
[10] = peak currents, read-out: Peak NMDA IC50
[11] = plateau (steady-state) currents, read-out: Plateau NMDA IC50

Structure (SMILES): O=c1[nH][nH]c(=O)c2nc3cc(Br)c(Cl)cc3cc12 [Mrz 2/538]
ED50 [1]: > 60 mg/kg
IC50 [2, 10]: 93.9 µM
IC50 [2, 11]: 2.5 µM
ED50 [3]: 106 mg/kg
ED50 [4]: > 100 mg/kg

Structure (SMILES): O=c1[nH]nc(O)c2c1cc1cc(Br)ccc1[n+]2[O-] [Mrz 2/570, 8-bromo-4-hydroxy-1-oxo-1,2-dihydropyridazino[4,5-b]-quinoline 5-oxide choline salt]
MES ID50 ([1]; listed as 570, 15 min): 12.8 mg/kg
ED50 [5]: 4.5 mg/kg
half life of anticonvulsive action ([6]; absence of probenecid): ~1.33 h
half life of anticonvulsive action ([6]; presence of probenecid 200 mg/kg, 30 min before): ~3.5 h
IC50 [2, 10]: 0.6 µM
IC50 [2, 11]: 0.1 µM
Microelectrophoretic AMPA ID50 [7]: > 16.0 mg/kg

Structure (SMILES): O=c1[nH][nH]c(=O)c2nc3ccccc3cc12 [Mrz 2/585]
ED50 [1]: > 100 mg/kg
IC50 [2, 10]: 65.9 µM
IC50 [2, 11]: 19.1 µM
ED50 [3]: 58.9 mg/kg
ED50 [4]: 59 mg/kg

Structure (SMILES): O=c1[nH][nH]c(=O)c2nc3cc(Cl)c(Br)cc3cc12 [Mrz 2/539]
ED50 [1]: > 60 mg/kg
IC50 [2, 10]: 5.3 µM
IC50 [2, 11]: 0.7 µM
ED50 [3]: > 100 mg/kg
ED50 [4]: > 100 mg/kg

IC50 [8]: 16 µM
in vivo systemic and / or CNS availability versus associated class I compounds [9]: much better
IC50 [2, 10]: 51.2 µM
IC50 [2, 11]: 13.8 µM
Structure (SMILES): O=c1[nH]nc(O)c2c1cc1ccccc1[n+]2[O-] [Mrz 2/499, 4-hydroxy-1-oxo-1,2-dihydro-pyridazino[4,5-b]-quinoline 5-oxide]
activity in the MES test [1]: effective
MES ID50 ([1]; listed as 499, 15 min): 87.0 mg/kg
ED50 [4]: 18.6 mg/kg
